Results taken from patent US20240209028A1, “CNP COMPOUNDS” (priority 2022, published 2024).
Starred links: 1 amine or outer side, 2 acyl side, 3 side chain; linkers in the order of their positions; H or OH if unused. Positions of bridges follow the written chain, without caps; N, C: chain ends. Residues, ends and D or L forms follow the SMILES beside them. *: point of attachment. C18 diacid = O=C(O)CCCCCCCCCCCCCCCCC(=O)*; γGlu = O=C(O)[C@H](CCC(=O)[*:2])N[*:1]; AEEA = NCCOCCOCC(=O)O

Molecular target: T1, human natriuretic peptide receptor 2 (hNPR2) (Homo sapiens, UniProt P20594)
T1 construct: expressed in transfected cells; host or cells: HEK293 (ATCC CRL-1573), clone 35, co-transfected with pGloSensor-42F
T1 sequence (P20594 23-1047): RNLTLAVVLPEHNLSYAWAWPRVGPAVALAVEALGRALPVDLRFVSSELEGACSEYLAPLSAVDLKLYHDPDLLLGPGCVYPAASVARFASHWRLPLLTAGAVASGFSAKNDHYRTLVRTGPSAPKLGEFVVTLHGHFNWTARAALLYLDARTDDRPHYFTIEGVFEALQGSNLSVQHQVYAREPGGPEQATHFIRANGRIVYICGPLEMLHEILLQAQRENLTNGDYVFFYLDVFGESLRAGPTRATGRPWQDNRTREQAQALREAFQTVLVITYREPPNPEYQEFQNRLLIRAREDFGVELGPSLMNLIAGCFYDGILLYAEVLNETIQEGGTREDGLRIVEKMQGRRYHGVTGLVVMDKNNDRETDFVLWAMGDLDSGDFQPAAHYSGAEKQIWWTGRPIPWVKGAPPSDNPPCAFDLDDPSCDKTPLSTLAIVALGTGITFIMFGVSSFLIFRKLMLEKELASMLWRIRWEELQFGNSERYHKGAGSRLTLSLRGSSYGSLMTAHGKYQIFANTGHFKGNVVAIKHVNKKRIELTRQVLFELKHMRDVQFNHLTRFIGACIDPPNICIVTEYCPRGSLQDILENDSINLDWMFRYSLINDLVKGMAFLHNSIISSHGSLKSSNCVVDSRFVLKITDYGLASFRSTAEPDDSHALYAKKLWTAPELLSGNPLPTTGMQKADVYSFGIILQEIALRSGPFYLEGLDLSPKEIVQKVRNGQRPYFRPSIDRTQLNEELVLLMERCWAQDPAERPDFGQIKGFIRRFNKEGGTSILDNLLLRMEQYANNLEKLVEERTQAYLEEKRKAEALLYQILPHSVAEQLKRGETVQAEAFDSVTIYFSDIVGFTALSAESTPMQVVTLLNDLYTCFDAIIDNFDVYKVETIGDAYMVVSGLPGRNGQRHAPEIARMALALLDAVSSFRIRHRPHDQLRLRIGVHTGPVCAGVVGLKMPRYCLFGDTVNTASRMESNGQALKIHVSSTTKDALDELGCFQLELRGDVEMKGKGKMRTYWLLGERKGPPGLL
Test: In vitro hNPR2 activity assay (cGMP GloSensor reporter, HEK293)
Format: cell-based
Conditions: for hNPR2 0% HSA. [EC50% rel CNP]: potency relative to CNP22 (0065); for EC50: 0% HSA, HEK293-hNPR2/GloSensor cells
Method in brief: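 Potency is the EC50 from a four-parameter logistic fit, also expressed relative to the in-plate CNP22 control (×100), with at least two replicates. Compounds (ten concentrations, […], HSA-free diluent with 1% OVA, 0.01% Tween20) were incubated 30 min at 37 °C on HEK293 cells co-expressing hNPR2 and a GloSensor cGMP luciferase. Luminescence detected with Bright-Glo.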

SMILES | hNPR2 0% HSA. [EC50% rel CNP] [%] | EC50 [nM]
CC[C@H](C)[C@@H]1NC(=O)[C@H](CCCNC(=N)N)NC(=O)[C@H](CC(=O)O)NC(=O)[C@H](CC(C)C)NC(=O)[C@@H]2CCCN2C(=O)[C@H](CC(C)C)NC(=O)CNC(=O)[C@H](Cc2ccccc2)NC(=O)[C@@H](NC(=O)CNC(=O)[C@H](CO)NC(=O)[C@H](CO)NC(=O)[C@H](CC(C)C)NC(=O)CNC(=O)[C@H](CCCCN)NC(=O)[C@H](CCCCN)NC(=O)[C@H](CCC(N)=O)NC(=O)[C@H](C)NC(=O)CNC(=O)[C@H](CCCCN)NC(=O)[C@H](Cc2ccc(O)cc2)NC(=O)[C@H](CCCCN)NC(=O)[C@H](CCCNC(=N)N)NC(=O)[C@H](C)NC(=O)[C@H](CCC(N)=O)NC(=O)[C@@H]2CCCN2C(=O)[C@H](Cc2c[nH]cn2)NC(=O)[C@H](CCC(=O)O)NC(=O)[C@H](CCC(N)=O)NC(=O)COCCOCCNC(=O)COCCOCCNC(=O)CC[C@H](NC(=O)CC[C@H](NC(=O)CC[C@H](NC(=O)CC[C@H](NC(=O)CCCCCCCCCCCCCCCCC(=O)O)C(=O)O)C(=O)O)C(=O)O)C(=O)O)CSSC[C@@H](C(=O)O)NC(=O)CNC(=O)[C@H](CC(C)C)NC(=O)CNC(=O)[C@H](CO)NC(=O)[C@H](CC(C)C)NC(=O)[C@H](CO)NC(=O)CNC1=O [compound 1473] ({C18 diacid-γGlu-γGlu-γGlu-γGlu-AEEA-AEEA}-QEHPQARKYKGAQKKGLSSGCFGLPLDRIGSLSGLGC-OH; disulfide 21-37; C-terminus assumed) | 107.7 | –
CC[C@H](C)[C@@H]1NC(=O)[C@H](CCCNC(=N)N)NC(=O)[C@H](CC(=O)O)NC(=O)[C@H](CC(C)C)NC(=O)[C@@H]2CCCN2C(=O)[C@H](CC(C)C)NC(=O)CNC(=O)[C@H](Cc2ccccc2)NC(=O)[C@@H](NC(=O)CNC(=O)[C@H](CCCCN)NC(=O)[C@H](CO)NC(=O)[C@H](CC(C)C)NC(=O)CNC(=O)[C@H](CCCCN)NC(=O)[C@H](CCCCN)NC(=O)[C@H](CCC(N)=O)NC(=O)[C@H](C)NC(=O)CNC(=O)[C@H](CCCCN)NC(=O)[C@H](Cc2ccc(O)cc2)NC(=O)[C@H](CCCCN)NC(=O)[C@H](CCCNC(=N)N)NC(=O)[C@H](C)NC(=O)[C@H](CCC(N)=O)NC(=O)[C@@H]2CCCN2C(=O)[C@H](Cc2c[nH]cn2)NC(=O)[C@H](CCC(=O)O)NC(=O)[C@H](CCC(N)=O)NC(=O)COCCOCCNC(=O)COCCOCCNC(=O)CC[C@H](NC(=O)CC[C@H](NC(=O)CC[C@H](NC(=O)CC[C@H](NC(=O)CC[C@H](NC(=O)CCCCCCCCCCCCCCCCC(=O)O)C(=O)O)C(=O)O)C(=O)O)C(=O)O)C(=O)O)CSSC[C@@H](C(=O)O)NC(=O)CNC(=O)[C@H](CC(C)C)NC(=O)CNC(=O)[C@H](CO)NC(=O)[C@H](CC(C)C)NC(=O)[C@H](CO)NC(=O)CNC1=O [compound 1474] ({C18 diacid-γGlu-γGlu-γGlu-γGlu-γGlu-AEEA-AEEA}-QEHPQARKYKGAQKKGLSKGCFGLPLDRIGSLSGLGC-OH; disulfide 21-37; C-terminus assumed) | 62.5 | –
CC[C@H](C)[C@@H]1NC(=O)[C@H](CCCNC(=N)N)NC(=O)[C@H](CCC(=O)O)NC(=O)[C@H](CC(C)C)NC(=O)[C@@H]2CCCN2C(=O)[C@H](CC(C)C)NC(=O)CNC(=O)[C@H](Cc2ccccc2)NC(=O)[C@@H](NC(=O)CNC(=O)[C@H](CCC(N)=O)NC(=O)[C@H](CO)NC(=O)[C@H](CC(C)C)NC(=O)CNC(=O)[C@H](CCCCN)NC(=O)[C@H](CCCCN)NC(=O)[C@H](CCC(N)=O)NC(=O)[C@H](C)NC(=O)CNC(=O)[C@H](CCCCN)NC(=O)[C@H](Cc2ccc(O)cc2)NC(=O)[C@H](CCCCN)NC(=O)[C@H](CCCNC(=N)N)NC(=O)[C@H](C)NC(=O)COCCOCCNC(=O)COCCOCCNC(=O)COCCOCCNC(=O)COCCOCCNC(=O)CC[C@H](NC(=O)CC[C@H](NC(=O)CC[C@H](NC(=O)CC[C@H](NC(=O)CC[C@H](NC(=O)CCCCCCCCCCCCCCCCC(=O)O)C(=O)O)C(=O)O)C(=O)O)C(=O)O)C(=O)O)CSSC[C@@H](C(=O)O)NC(=O)CNC(=O)[C@H](CC(C)C)NC(=O)CNC(=O)[C@H](CO)NC(=O)[C@H](CC(C)C)NC(=O)[C@H](CO)NC(=O)CNC1=O [compound 1477] ({C18 diacid-γGlu-γGlu-γGlu-γGlu-γGlu-AEEA-AEEA-AEEA-AEEA}-ARKYKGAQKKGLSQGCFGLPLERIGSLSGLGC-OH; disulfide 16-32) | 10.3 | 0.13
CC[C@H](C)[C@@H]1NC(=O)[C@H](CCCNC(=N)N)NC(=O)[C@H](CC(=O)O)NC(=O)[C@H](CC(C)C)NC(=O)[C@@H]2CCCN2C(=O)[C@H](CC(C)C)NC(=O)CNC(=O)[C@H](Cc2ccccc2)NC(=O)[C@@H](NC(=O)CNC(=O)[C@H](CCC(N)=O)NC(=O)[C@H](CO)NC(=O)[C@H](CC(C)C)NC(=O)CNC(=O)[C@H](CCCCN)NC(=O)[C@H](CCCCN)NC(=O)[C@H](CCC(N)=O)NC(=O)[C@H](C)NC(=O)CNC(=O)[C@H](CCCCN)NC(=O)[C@H](Cc2ccc(O)cc2)NC(=O)COCCOCCNC(=O)COCCOCCNC(=O)COCCOCCNC(=O)COCCOCCNC(=O)CC[C@H](NC(=O)CC[C@H](NC(=O)CCCCCCCCCCCCCCCCC(=O)O)C(=O)O)C(=O)O)CSSC[C@@H](C(=O)O)NC(=O)CNC(=O)[C@H](CC(C)C)NC(=O)CNC(=O)[C@H](CO)NC(=O)[C@H](CC(C)C)NC(=O)[C@H](CO)NC(=O)CNC1=O [compound 1478] ({C18 diacid-γGlu-γGlu-AEEA-AEEA-AEEA-AEEA}-YKGAQKKGLSQGCFGLPLDRIGSLSGLGC-OH; disulfide 13-29; C-terminus assumed) | 26.6 | –
CC[C@H](C)[C@@H]1NC(=O)[C@H](CCCNC(=N)N)NC(=O)[C@H](CC(=O)O)NC(=O)[C@H](CC(C)C)NC(=O)[C@@H]2CCCN2C(=O)[C@H](CC(C)C)NC(=O)CNC(=O)[C@H](Cc2ccccc2)NC(=O)[C@@H](NC(=O)CNC(=O)[C@H](CCC(N)=O)NC(=O)[C@H](CO)NC(=O)[C@H](CC(C)C)NC(=O)CNC(=O)[C@H](CCCCN)NC(=O)[C@H](CCCCN)NC(=O)[C@H](CCC(N)=O)NC(=O)[C@H](C)NC(=O)CNC(=O)[C@@H]2CCCN2C(=O)[C@H](C)NC(=O)[C@H](CCC(N)=O)NC(=O)CNC(=O)COCCOCCNC(=O)COCCOCCNC(=O)CC[C@H](NC(=O)CCCCCCCCCCCCCCCCC(=O)O)C(=O)O)CSSC[C@@H](C(=O)O)NC(=O)CNC(=O)[C@H](CC(C)C)NC(=O)CNC(=O)[C@H](CO)NC(=O)[C@H](CC(C)C)NC(=O)[C@H](CO)NC(=O)CNC1=O [compound 1484] ({C18 diacid-γGlu-AEEA-AEEA}-GQAPGAQKKGLSQGCFGLPLDRIGSLSGLGC-OH; disulfide 15-31; C-terminus assumed) | 27.9 | –
CC[C@H](C)[C@@H]1NC(=O)[C@H](CCCNC(=N)N)NC(=O)[C@H](CCC(=O)O)NC(=O)[C@H](CC(C)C)NC(=O)[C@@H]2CCCN2C(=O)[C@H](CC(C)C)NC(=O)CNC(=O)[C@H](Cc2ccccc2)NC(=O)[C@@H](NC(=O)CNC(=O)[C@H](CCC(N)=O)NC(=O)[C@H](CO)NC(=O)CNC(=O)CNC(=O)[C@H](CCCCN)NC(=O)[C@H](CCCCN)NC(=O)[C@H](CCC(N)=O)NC(=O)[C@H](C)NC(=O)CNC(=O)[C@H](CCCCN)NC(=O)[C@H](Cc2ccc(O)cc2)NC(=O)COCCOCCNC(=O)COCCOCCNC(=O)COCCOCCNC(=O)COCCOCCNC(=O)CC[C@H](NC(=O)CC[C@H](NC(=O)CCCCCCCCCCCCCCCCC(=O)O)C(=O)O)C(=O)O)CSSC[C@@H](C(=O)O)NC(=O)CNC(=O)[C@H](CC(C)C)NC(=O)CNC(=O)[C@H](CO)NC(=O)[C@H](CC(C)C)NC(=O)[C@H](CO)NC(=O)CNC1=O [compound 1489] ({C18 diacid-γGlu-γGlu-AEEA-AEEA-AEEA-AEEA}-YKGAQKKGGSQGCFGLPLERIGSLSGLGC-OH; disulfide 13-29) | 3.7 | 0.22
